{"source": "patent US7432227B2", "about": "“6-alkyl or alkenyl-4-aminopicolinates and their use as herbicides” (Dow AgroSciences LLC, priority 2003, dated 2008)", "key": {"[1]": {"system": "Cocklebur (Xanthium strumarium)", "test": "Postemergence herbicidal activity, Cocklebur", "format": "in vivo", "details": "post-emergence, 336 h, rate 250 ppm, visual score after 2 weeks, 0 = no injury, 100 = complete kill, read-out: Post-emergent % control XANST", "description": "(§1) Seeds of the desired test plant species were planted in Grace-Sierra MetroMix® 306 planting mixture, which typically has a pH of 6.0 to 6.8 and an organic matter content of about 30 percent, in plastic pots with a surface area of 64 square centimeters. When required to ensure good germination and healthy plants, a fungicide treatment and/or other chemical or physical treatment was applied. The plants were grown for 7-21 days in a greenhouse with an approximate 15 hr photoperiod which was maintained at about 23-29° C. during the day and 22-28° C. during the night. Nutrients and water were added on a regular basis and supplemental lighting was provided with overhead metal halide 1000-Watt lamps as necessary. The plants were employed for testing when they reached the first or second true leaf stage. A weighed amount, determined by the highest rate to be tested, of each test compound was placed in a 20 mL glass vial and was dissolved in 4 mL of a 97:3 v/v (volume/volume) mixture of acetone and dimethyl sulfoxide (DMSO) to obtain concentrated stock solutions. […] The concentrated stock solutions obtained were diluted with an aqueous mixture containing acetone, water, isopropyl alcohol, DMSO, Atplus 411F crop oil concentrate, and Triton X-155 surfactant in a 48.5:39:10:1.5:1.0:0.02 v/v ratio to obtain spray solutions of known concentration. The solutions containing the highest concentration to be tested were prepared by diluting 2 mL aliquots of the stock solution with 13 mL of the mixture and lower concentrations were prepared by serial dilution of the stock solution. Approximately 1.5 mL aliquots of each solution of known concentration were sprayed evenly onto each of the test plant pots using a DeVilbiss atomizer driven by compressed air pressure of 2 to 4 psi (140 to 280 kilopascals) to obtain thorough coverage of each plant. Control plants were sprayed in the same manner with the aqueous mixture. In this test an application rate of 1 ppm results in the application of approximately 1 g/Ha. The treated plants and control plants were placed in a greenhouse as described above and watered by sub-irrigation to prevent wash-off of the test compounds. After 2 weeks the condition of the test plants as compared with that of the untreated plants was determined visually and scored on a scale of 0 to 100 percent where 0 corresponds to no injury and 100 corresponds to complete kill."}, "[2]": {"system": "Lambsquarter (Chenopodium album)", "test": "Postemergence herbicidal activity, Lambsquarter", "format": "in vivo", "details": "post-emergence, 336 h, visual score after 2 weeks, 0 = no injury, 100 = complete kill, read-out: Post-emergent % control CHEAL; for pest or weed control at 250 ppm: rate 250 ppm", "description": "as §1"}, "[3]": {"system": "Barnyardgrass (Echinochloa crus-galli)", "test": "Postemergence herbicidal activity, Barnyardgrass", "format": "in vivo", "details": "post-emergence, 336 h, visual score after 2 weeks, 0 = no injury, 100 = complete kill, read-out: Post-emergent % control ECHCG; for pest or weed control at 250 ppm: rate 250 ppm", "description": "as §1"}, "[4]": {"system": "Giant Foxtail (Setaria faberi)", "test": "Postemergence herbicidal activity, Giant Foxtail", "format": "in vivo", "details": "post-emergence, 336 h, visual score after 2 weeks, 0 = no injury, 100 = complete kill, read-out: Post-emergent % control SETFA; for pest or weed control at 250 ppm: rate 250 ppm", "description": "as §1"}, "[5]": {"system": "Pigweed (redroot) (Amaranthus retroflexus)", "test": "Postemergence herbicidal activity, Pigweed (redroot)", "format": "in vivo", "details": "visual score after 2 weeks, 0 = no injury, 100 = complete kill", "description": "as §1"}, "[6]": {"system": "Wheat(var.Merica) (Triticum aestivum)", "test": "Postemergence herbicidal activity, selectivity to wheat", "format": "in vivo", "details": "crop (wheat) selectivity, visual score after 2 weeks, 0 = no injury", "description": "as §1, with “Control plants were sprayed in the same manner with the aqueous mixture. In this test an application rate of 1 ppm results in the application of approximately 1 g/Ha. The treated plants and control plants were placed in a greenhouse as described above and watered by sub-irrigation to prevent wash-off of the test compounds.” left out"}, "[7]": {"system": "Corn (#14 3377) (Zea mays)", "test": "Postemergence herbicidal activity, selectivity to corn", "format": "in vivo", "details": "crop (corn) selectivity, visual score after 2 weeks, 0 = no injury", "description": "as §1"}, "[8]": {"system": "Lambsquarter (Chenopodium album)", "test": "Preemergence herbicidal activity, Lambsquarter", "format": "in vivo", "details": "pre-emergence, 504 h, visual score after 3 weeks, 100 = complete kill or no germination, read-out: Pre-emergent % control CHEAL; for pest or weed control at 280 ppm: rate 280 ppm", "from_the_text": "(§2) Seeds of the desired test plant species were planted in a soil matrix prepared by mixing a loam soil (43 percent silt, 19 percent clay, and 38 percent sand, with a pH of about 8.1 and an organic matter content of about 1.5 percent) and sand in a 70 to 30 ratio. The soil matrix was contained in plastic pots with a surface area of 113 square centimeters. When required to ensure good germination and healthy plants, a fungicide treatment and/or other chemical or physical treatment was applied. A weighed amount, determined by the highest rate to be tested, of each test compound was placed in a 20 mL glass vial and was dissolved in 4 mL of a 97:3 v/v (volume/volume) mixture of acetone and dimethyl sulfoxide to obtain concentrated stock solutions. […] The stock solutions obtained were diluted with a 99.9:0.1 mixture of water and Tween® […] surfactant to obtain application solutions of known concentration. The solutions containing the highest concentration to be tested were prepared by diluting 2 mL aliquots of the stock solution with 15 mL of the mixture and lower concentrations were prepared by serial dilution of the stock solution. A 2.5 mL aliquot of each solution of known concentration was sprayed evenly onto the soil surface (113 sq. cm) of each seeded pot using a Cornwall 5.0 mL glass syringe fitted with a TeeJet TN-3 hollow cone nozzle to obtain thorough coverage of the soil in each pot. Control pots were sprayed in the same manner with the aqueous mixture. The treated pots and control pots were placed in a greenhouse maintained with an approximate 15 hr photoperiod and temperatures of about 23-29° C. during the day and 22-28° C. during the night. Nutrients and water were added on a regular basis and supplemental lighting was provided with overhead metal halide 1000-Watt lamps as necessary. The water was added by top-irrigation. After 3 weeks the condition of the test plants that germinated and grew as compared with that of the untreated plants that germinated and grew was determined visually and scored on a scale of 0 to 100 percent where 0 corresponds to no injury and 100 corresponds to complete kill or no germination."}, "[9]": {"system": "Ivyleaf Morningglory (Ipomoea hederacea)", "test": "Preemergence herbicidal activity, Ivyleaf Morningglory", "format": "in vivo", "details": "pre-emergence, 504 h, visual score after 3 weeks, 100 = complete kill or no germination, read-out: Pre-emergent % control IPOHE; for pest or weed control at 280 ppm: rate 280 ppm", "from_the_text": "as §2"}, "[10]": {"system": "Crabgrass(large) (Digitaria sanguinalis)", "test": "Preemergence herbicidal activity, Crabgrass(large)", "format": "in vivo", "details": "pre-emergence, 504 h, visual score after 3 weeks, 100 = complete kill or no germination, read-out: Pre-emergent % control DIGSA; for pest or weed control at 280 ppm: rate 280 ppm", "from_the_text": "as §2"}, "[11]": {"system": "Giant Foxtail (Setaria faberi)", "test": "Preemergence herbicidal activity, Giant Foxtail", "format": "in vivo", "details": "pre-emergence, 504 h, visual score after 3 weeks, 100 = complete kill or no germination, read-out: Pre-emergent % control SETFA; for pest or weed control at 280 ppm: rate 280 ppm", "from_the_text": "as §2"}}, "data": [{"compound": "CCc1cc(N)c(Cl)c(C(=O)OC)n1", "note": "[Compound 4, Methyl 4-amino-3-chloro-6-ethylpyridine-2-carboxylate]", "values": [{"measurement": "pest or weed control at 250 ppm", "setting": "[1]", "result": 95, "unit": "%"}, {"measurement": "pest or weed control at 250 ppm", "setting": "[2]", "result": 100, "unit": "%"}, {"measurement": "pest or weed control at 250 ppm", "setting": "[3]", "result": 0, "unit": "%"}, {"measurement": "pest or weed control at 250 ppm", "setting": "[4]", "result": 0, "unit": "%"}, {"measurement": "Post-emergent % control AMARE", "setting": "[5]; rate 250 ppm", "result": 98, "unit": "%"}, {"measurement": "Post-emergent % control TRZAS", "setting": "[6]; rate 250 ppm", "result": 0, "unit": "%"}, {"measurement": "Post-emergent % control ZEAMX", "setting": "[7]; rate 250 ppm", "result": 0, "unit": "%"}, {"measurement": "pest or weed control at 280 ppm", "setting": "[8]", "result": 98, "unit": "%"}, {"measurement": "pest or weed control at 280 ppm", "setting": "[9]", "result": 100, "unit": "%"}, {"measurement": "pest or weed control at 280 ppm", "setting": "[10]", "result": 0, "unit": "%"}, {"measurement": "pest or weed control at 280 ppm", "setting": "[11]", "result": 0, "unit": "%"}]}, {"compound": "CCc1cc(N)c(Cl)c(C(=O)O)n1", "note": "[Compound 6, 4-Amino-3-chloro-6-ethylpyridine-2-carboxylic acid]", "values": [{"measurement": "pest or weed control at 250 ppm", "setting": "[1]", "result": 98, "unit": "%"}, {"measurement": "pest or weed control at 250 ppm", "setting": "[2]", "result": 90, "unit": "%"}, {"measurement": "pest or weed control at 250 ppm", "setting": "[3]", "result": 0, "unit": "%"}, {"measurement": "pest or weed control at 250 ppm", "setting": "[4]", "result": 0, "unit": "%"}, {"measurement": "Post-emergent % control AMARE", "setting": "[5]; rate 250 ppm", "result": 100, "unit": "%"}, {"measurement": "Post-emergent % control TRZAS", "setting": "[6]; rate 250 ppm", "result": 0, "unit": "%"}, {"measurement": "Post-emergent % control ZEAMX", "setting": "[7]; rate 250 ppm", "result": 0, "unit": "%"}, {"measurement": "pest or weed control at 280 ppm", "setting": "[8]", "result": 90, "unit": "%"}, {"measurement": "pest or weed control at 280 ppm", "setting": "[9]", "result": 100, "unit": "%"}, {"measurement": "pest or weed control at 280 ppm", "setting": "[10]", "result": 15, "unit": "%"}, {"measurement": "pest or weed control at 280 ppm", "setting": "[11]", "result": 0, "unit": "%"}, {"measurement": "melting point", "result": "140 to 142", "unit": "°C"}]}, {"compound": "COCc1cc(N)c(Cl)c(C(=O)O)n1", "note": "[Compound 9, 4-Amino-3-chloro-6-(methoxymethyl)pyridine-2-carboxylic acid]", "values": [{"measurement": "pest or weed control at 250 ppm", "setting": "[1]", "result": 80, "unit": "%"}, {"measurement": "pest or weed control at 250 ppm", "setting": "[2]", "result": 80, "unit": "%"}, {"measurement": "pest or weed control at 250 ppm", "setting": "[3]", "result": 0, "unit": "%"}, {"measurement": "pest or weed control at 250 ppm", "setting": "[4]", "result": 0, "unit": "%"}, {"measurement": "Post-emergent % control AMARE", "setting": "[5]; rate 250 ppm", "result": 90, "unit": "%"}, {"measurement": "Post-emergent % control ZEAMX", "setting": "[7]; rate 250 ppm", "result": 0, "unit": "%"}, {"measurement": "pest or weed control at 560 ppm", "setting": "[8]; rate 560 ppm", "result": 90, "unit": "%"}, {"measurement": "pest or weed control at 560 ppm", "setting": "[9]; rate 560 ppm", "result": 50, "unit": "%"}, {"measurement": "pest or weed control at 560 ppm", "setting": "[10]; rate 560 ppm", "result": 10, "unit": "%"}, {"measurement": "pest or weed control at 560 ppm", "setting": "[11]; rate 560 ppm", "result": 10, "unit": "%"}]}, {"compound": "COC(=O)c1nc(C)cc(N)c1Cl", "note": "[Compound 13, Methyl 4-amino-3-chloro-6-methylpyridine-2-carboxylate]", "values": [{"measurement": "pest or weed control at 254 ppm", "setting": "[2]; rate 254 ppm", "result": 70, "unit": "%"}, {"measurement": "pest or weed control at 254 ppm", "setting": "[3]; rate 254 ppm", "result": 0, "unit": "%"}, {"measurement": "pest or weed control at 254 ppm", "setting": "[4]; rate 254 ppm", "result": 0, "unit": "%"}, {"measurement": "Post-emergent % control AMARE", "setting": "[5]; rate 254 ppm", "result": 90, "unit": "%"}, {"measurement": "Post-emergent % control TRZAS", "setting": "[6]; rate 254 ppm", "result": 0, "unit": "%"}, {"measurement": "Post-emergent % control ZEAMX", "setting": "[7]; rate 254 ppm", "result": 0, "unit": "%"}, {"measurement": "pest or weed control at 573 ppm", "setting": "[8]; rate 573 ppm", "result": 100, "unit": "%"}, {"measurement": "pest or weed control at 573 ppm", "setting": "[9]; rate 573 ppm", "result": 90, "unit": "%"}, {"measurement": "pest or weed control at 573 ppm", "setting": "[10]; rate 573 ppm", "result": 0, "unit": "%"}, {"measurement": "pest or weed control at 573 ppm", "setting": "[11]; rate 573 ppm", "result": 0, "unit": "%"}]}]}
